Laboratory results: article PMC9329436, “Optimization of the 4-anilinoquin(az)oline scaffold as epidermal growth factor receptor (EGFR) inhibitors for chordoma utilizing a toxicology profiling assay platform” (Scientific Reports, 2022)
Read-outs that look alike come from different tables or passages of the source.

Columns and labels:
Assay type in all cases: biochemical
[1] = biological target: 320 wild-type protein kinases (Homo sapiens, UniProt P07948); conditions: LYN, singlicate
Source text: (§1) Table S4. Profiling of two compounds at two concentrations against 320 wild-type protein kinases; singlicate measurement; Residual activities (% of control).

[2] = biological target: 320 wild-type protein kinases (Homo sapiens, UniProt O75676); conditions: kinase RPS6KA4, singlicate
Source text: as §1

[3] = biological target: 320 wild-type protein kinases (Homo sapiens, UniProt Q8N5S9); conditions: singlicate
Source text: as §1

[4] = biological target: 320 wild-type protein kinases (Homo sapiens, UniProt P49760); conditions: singlicate
Source text: as §1

[5] = biological target: 320 wild-type protein kinases (Homo sapiens, UniProt Q9Y2K2); conditions: kinase SIK3, singlicate
Source text: as §1

[6] = biological target: T1, 320 wild-type protein kinases (Homo sapiens, UniProt Q16566); conditions: singlicate
T1 sequence (Q16566 1-473): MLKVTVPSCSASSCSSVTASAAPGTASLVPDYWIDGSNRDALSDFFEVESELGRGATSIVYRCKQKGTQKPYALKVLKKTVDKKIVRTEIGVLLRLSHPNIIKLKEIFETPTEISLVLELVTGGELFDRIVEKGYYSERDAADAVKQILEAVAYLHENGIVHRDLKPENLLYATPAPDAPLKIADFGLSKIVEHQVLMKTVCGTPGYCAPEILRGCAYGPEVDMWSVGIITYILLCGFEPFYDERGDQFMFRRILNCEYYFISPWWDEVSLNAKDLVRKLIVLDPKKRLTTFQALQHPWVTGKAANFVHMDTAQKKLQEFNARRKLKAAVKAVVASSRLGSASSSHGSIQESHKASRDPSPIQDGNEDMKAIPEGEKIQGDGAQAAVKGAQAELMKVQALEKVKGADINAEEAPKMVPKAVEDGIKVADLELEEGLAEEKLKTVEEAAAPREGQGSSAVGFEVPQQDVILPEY
Source text: as §1

[7] = biological target: 320 wild-type protein kinases (Homo sapiens, UniProt Q15349); conditions: kinase RPS6KA2, singlicate
Source text: as §1

[8] = biological target: T2, 320 wild-type protein kinases (Homo sapiens, UniProt O60285); conditions: singlicate
T2 sequence (O60285 1-661): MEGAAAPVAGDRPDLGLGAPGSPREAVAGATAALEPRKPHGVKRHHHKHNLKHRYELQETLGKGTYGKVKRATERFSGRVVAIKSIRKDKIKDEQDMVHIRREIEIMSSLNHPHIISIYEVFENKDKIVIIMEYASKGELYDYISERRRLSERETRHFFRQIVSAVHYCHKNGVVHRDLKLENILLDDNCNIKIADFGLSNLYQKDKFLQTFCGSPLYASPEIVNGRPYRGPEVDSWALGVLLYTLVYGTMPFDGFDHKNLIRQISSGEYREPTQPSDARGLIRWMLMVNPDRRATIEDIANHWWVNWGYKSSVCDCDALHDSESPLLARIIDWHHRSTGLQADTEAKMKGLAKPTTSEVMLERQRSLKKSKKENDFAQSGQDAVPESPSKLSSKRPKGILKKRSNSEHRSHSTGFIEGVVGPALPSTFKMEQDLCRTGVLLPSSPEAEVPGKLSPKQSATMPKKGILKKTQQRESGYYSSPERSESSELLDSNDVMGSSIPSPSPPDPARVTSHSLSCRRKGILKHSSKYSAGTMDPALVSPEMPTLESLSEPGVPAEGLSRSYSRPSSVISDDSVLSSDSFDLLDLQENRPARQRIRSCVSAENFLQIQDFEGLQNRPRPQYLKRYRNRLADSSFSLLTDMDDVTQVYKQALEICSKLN
Source text: as §1

[9] = biological target: T3, 320 wild-type protein kinases (Homo sapiens, UniProt Q13188); conditions: singlicate
T3 sequence (Q13188 1-491): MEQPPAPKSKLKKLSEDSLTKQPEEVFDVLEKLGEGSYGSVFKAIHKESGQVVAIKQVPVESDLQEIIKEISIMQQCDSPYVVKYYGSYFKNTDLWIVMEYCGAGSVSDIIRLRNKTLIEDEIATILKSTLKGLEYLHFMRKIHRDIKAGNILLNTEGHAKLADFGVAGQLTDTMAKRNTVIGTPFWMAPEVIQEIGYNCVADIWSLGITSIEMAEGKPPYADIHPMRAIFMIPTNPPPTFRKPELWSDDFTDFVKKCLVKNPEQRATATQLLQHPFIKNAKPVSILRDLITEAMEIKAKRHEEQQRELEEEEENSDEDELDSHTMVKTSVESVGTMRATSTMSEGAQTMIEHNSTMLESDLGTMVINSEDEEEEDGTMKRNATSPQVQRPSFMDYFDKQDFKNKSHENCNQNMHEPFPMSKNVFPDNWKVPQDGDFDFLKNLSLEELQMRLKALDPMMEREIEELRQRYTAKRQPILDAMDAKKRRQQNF
Source text: as §1

[10] = biological target: 320 wild-type protein kinases (Homo sapiens, UniProt Q86UE8); conditions: kinase TLK2, singlicate
Source text: as §1

Sequence of 320 wild-type protein kinases (Homo sapiens, UniProt O75676) (O75676 whole entry): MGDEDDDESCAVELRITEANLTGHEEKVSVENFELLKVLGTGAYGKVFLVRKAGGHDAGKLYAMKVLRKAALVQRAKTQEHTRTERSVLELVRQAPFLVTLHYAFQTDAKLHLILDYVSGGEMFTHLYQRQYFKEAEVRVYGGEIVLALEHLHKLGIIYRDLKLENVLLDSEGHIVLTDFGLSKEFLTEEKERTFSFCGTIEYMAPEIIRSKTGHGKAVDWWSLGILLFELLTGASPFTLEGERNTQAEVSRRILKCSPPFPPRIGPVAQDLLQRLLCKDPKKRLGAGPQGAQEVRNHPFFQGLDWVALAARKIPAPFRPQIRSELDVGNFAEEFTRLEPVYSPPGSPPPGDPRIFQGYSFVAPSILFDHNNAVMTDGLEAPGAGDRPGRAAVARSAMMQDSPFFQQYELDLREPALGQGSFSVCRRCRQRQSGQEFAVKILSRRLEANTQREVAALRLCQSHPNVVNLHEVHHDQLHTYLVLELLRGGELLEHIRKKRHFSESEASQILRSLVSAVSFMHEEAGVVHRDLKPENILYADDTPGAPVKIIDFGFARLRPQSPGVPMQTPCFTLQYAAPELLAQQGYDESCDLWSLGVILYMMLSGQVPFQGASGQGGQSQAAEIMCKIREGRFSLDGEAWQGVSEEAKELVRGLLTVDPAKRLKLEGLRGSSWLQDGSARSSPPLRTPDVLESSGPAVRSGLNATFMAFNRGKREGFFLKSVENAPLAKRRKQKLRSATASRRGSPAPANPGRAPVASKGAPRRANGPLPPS
Sequence of 320 wild-type protein kinases (Homo sapiens, UniProt Q9Y2K2) (Q9Y2K2 whole entry): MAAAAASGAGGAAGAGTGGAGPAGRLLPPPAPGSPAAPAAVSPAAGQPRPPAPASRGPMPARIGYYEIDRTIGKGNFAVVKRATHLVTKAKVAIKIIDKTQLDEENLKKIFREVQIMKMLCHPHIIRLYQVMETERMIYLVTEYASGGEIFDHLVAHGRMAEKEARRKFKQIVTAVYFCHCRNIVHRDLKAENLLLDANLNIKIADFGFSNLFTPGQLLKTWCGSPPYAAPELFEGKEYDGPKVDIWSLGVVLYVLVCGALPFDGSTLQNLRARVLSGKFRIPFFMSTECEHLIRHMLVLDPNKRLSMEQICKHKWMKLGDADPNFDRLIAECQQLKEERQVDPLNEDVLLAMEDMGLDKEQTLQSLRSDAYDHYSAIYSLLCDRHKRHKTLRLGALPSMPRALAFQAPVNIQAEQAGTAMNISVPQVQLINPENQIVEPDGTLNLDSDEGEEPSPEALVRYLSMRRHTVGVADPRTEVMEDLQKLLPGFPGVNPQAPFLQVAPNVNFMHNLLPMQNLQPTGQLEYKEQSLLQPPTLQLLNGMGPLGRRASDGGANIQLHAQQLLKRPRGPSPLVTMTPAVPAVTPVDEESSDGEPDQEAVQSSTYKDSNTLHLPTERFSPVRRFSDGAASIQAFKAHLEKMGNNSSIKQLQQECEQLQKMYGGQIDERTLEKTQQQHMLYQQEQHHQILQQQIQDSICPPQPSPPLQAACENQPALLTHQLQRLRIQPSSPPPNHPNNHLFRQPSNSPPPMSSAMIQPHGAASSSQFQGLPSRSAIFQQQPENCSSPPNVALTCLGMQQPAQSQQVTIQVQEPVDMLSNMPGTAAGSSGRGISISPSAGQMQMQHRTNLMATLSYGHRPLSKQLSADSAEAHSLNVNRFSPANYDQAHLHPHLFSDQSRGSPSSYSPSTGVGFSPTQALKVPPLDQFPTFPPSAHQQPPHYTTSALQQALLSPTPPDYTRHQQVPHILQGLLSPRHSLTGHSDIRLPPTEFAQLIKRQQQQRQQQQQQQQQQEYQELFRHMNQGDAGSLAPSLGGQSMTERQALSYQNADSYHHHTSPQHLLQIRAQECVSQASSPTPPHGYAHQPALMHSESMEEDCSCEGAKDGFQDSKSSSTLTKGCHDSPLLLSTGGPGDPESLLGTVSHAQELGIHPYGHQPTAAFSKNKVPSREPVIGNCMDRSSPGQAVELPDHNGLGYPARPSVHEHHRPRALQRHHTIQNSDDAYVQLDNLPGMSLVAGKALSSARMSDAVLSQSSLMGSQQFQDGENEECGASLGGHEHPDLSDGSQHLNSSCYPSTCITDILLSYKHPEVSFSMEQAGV
Sequence of 320 wild-type protein kinases (Homo sapiens, UniProt Q8N5S9) (Q8N5S9 whole entry): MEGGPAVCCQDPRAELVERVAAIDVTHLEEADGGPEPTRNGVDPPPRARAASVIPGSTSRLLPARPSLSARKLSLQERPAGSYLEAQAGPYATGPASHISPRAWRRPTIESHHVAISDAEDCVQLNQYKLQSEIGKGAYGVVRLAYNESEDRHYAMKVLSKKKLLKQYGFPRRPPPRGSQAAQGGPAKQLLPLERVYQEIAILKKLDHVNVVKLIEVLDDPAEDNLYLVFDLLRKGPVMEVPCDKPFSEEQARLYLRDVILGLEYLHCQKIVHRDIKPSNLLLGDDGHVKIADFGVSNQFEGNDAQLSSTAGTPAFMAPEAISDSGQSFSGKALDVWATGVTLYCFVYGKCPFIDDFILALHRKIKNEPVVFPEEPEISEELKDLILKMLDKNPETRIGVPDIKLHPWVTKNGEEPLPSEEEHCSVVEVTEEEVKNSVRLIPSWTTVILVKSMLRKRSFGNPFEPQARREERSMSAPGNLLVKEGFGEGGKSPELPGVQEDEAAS
Sequence of 320 wild-type protein kinases (Homo sapiens, UniProt Q86UE8) (Q86UE8 whole entry): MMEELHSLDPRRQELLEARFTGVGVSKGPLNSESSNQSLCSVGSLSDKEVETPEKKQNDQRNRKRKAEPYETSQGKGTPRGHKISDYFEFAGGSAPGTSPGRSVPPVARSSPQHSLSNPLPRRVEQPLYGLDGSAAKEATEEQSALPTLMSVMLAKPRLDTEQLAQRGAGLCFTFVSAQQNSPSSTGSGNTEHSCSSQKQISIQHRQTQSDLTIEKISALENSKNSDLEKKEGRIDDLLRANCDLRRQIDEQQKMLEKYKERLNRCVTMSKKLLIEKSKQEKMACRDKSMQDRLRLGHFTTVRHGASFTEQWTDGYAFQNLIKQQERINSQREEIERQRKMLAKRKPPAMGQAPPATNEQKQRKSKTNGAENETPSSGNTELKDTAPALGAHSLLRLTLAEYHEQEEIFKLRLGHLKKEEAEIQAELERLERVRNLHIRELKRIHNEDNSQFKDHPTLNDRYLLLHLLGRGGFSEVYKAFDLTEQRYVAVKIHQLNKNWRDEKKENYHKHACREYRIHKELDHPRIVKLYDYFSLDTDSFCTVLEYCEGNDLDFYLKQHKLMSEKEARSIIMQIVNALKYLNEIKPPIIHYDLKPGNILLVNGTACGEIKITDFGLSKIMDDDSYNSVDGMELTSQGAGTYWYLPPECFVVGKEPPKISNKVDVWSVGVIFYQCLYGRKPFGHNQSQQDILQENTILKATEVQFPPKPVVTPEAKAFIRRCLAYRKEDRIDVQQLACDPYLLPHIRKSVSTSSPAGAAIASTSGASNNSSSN
Sequence of 320 wild-type protein kinases (Homo sapiens, UniProt P49760) (P49760 whole entry): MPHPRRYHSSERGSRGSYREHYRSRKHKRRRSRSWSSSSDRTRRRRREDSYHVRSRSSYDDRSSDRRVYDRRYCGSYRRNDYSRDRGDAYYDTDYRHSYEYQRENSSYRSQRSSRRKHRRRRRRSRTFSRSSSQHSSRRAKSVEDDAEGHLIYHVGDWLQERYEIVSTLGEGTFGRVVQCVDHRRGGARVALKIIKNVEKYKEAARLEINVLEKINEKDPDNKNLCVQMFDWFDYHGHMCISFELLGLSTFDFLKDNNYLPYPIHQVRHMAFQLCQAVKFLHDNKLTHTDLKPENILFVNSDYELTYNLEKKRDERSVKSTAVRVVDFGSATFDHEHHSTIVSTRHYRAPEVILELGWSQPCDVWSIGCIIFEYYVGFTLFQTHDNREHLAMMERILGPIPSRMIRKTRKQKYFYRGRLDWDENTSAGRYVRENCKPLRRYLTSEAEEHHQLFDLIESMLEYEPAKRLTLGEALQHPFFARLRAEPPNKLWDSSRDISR
Sequence of 320 wild-type protein kinases (Homo sapiens, UniProt P07948) (P07948 whole entry): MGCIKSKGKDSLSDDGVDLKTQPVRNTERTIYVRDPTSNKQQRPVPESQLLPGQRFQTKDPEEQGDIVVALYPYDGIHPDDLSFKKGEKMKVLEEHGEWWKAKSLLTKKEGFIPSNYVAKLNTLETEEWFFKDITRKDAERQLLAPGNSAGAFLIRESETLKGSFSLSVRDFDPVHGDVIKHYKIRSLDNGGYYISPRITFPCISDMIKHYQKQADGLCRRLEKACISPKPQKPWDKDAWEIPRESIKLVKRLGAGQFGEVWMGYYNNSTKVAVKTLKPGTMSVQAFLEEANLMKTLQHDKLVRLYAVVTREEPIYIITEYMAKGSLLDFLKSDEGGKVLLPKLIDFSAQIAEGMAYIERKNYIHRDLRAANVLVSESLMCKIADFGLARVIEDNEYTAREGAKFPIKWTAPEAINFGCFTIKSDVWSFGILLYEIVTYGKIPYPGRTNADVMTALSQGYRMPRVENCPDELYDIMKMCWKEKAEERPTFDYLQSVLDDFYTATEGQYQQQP

Q: Which Residual activity ([1]; 1.0E-06 M) does the source give for `C#Cc1cc(Nc2ncnc3cc(I)ccc23)ccc1Cl` [Compound 41] here?
A: The Residual activity was 89 % of control.

Q: And the Residual activity ([1]; 1.0E-07 M)?
A: Its Residual activity is 103 % of control.

Q: What about the “Residual activity, RPS6KA4” value ([2]; assay conc. 1.0E-06 M) of the same compound?
A: The value was 93 % of control.

Q: What about the “Residual activity, RPS6KA4” value ([2]; assay conc. 1.0E-07 M) of the same compound?
A: The value was 95 % of control.

Q: And the Residual activity ([3]; CAMKK1, 1.0E-06 M)?
A: The Residual activity was 84 % of control.

Q: And the Residual activity ([3]; CAMKK1, 1.0E-07 M)?
A: Its Residual activity is 87 % of control.

Q: And the Residual activity ([4]; CLK2, 1.0E-06 M)?
A: Its Residual activity is 106 % of control.

Q: What about the Residual activity ([4]; CLK2, 1.0E-07 M) of the same compound?
A: Its Residual activity is 122 % of control.

Q: And the “Residual activity, SIK3” value ([5]; assay conc. 1.0E-06 M)?
A: Its value is 72 % of control.

Q: What about the “Residual activity, SIK3” value ([5]; assay conc. 1.0E-07 M) of the same compound?
A: Its value is 77 % of control.

Q: What about the Residual activity ([6]; CAMK4, 1.0E-06 M) of the same compound?
A: The Residual activity was 91 % of control.

Q: And the Residual activity ([6]; CAMK4, 1.0E-07 M)?
A: Its Residual activity is 84 % of control.

Q: And the “Residual activity, RPS6KA2” value ([7]; assay conc. 1.0E-06 M)?
A: Its value is 94 % of control.

Q: What about the “Residual activity, RPS6KA2” value ([7]; assay conc. 1.0E-07 M) of the same compound?
A: Its value is 97 % of control.

Q: What about the Residual activity ([8]; ARK5, 1.0E-06 M) of the same compound?
A: Its Residual activity is 108 % of control.

Q: What about the Residual activity ([8]; ARK5, 1.0E-07 M) of the same compound?
A: The Residual activity was 110 % of control.

Q: And the Residual activity ([9]; MST2, 1.0E-06 M)?
A: The Residual activity was 102 % of control.

Q: What about the Residual activity ([9]; MST2, 1.0E-07 M) of the same compound?
A: Its Residual activity is 113 % of control.

Q: What about the “Residual activity, TLK2” value ([10]; assay conc. 1.0E-06 M) of the same compound?
A: Its value is 109 % of control.

Q: And the “Residual activity, TLK2” value ([10]; assay conc. 1.0E-07 M)?
A: The value was 117 % of control.

Q: How did the Residual activity ([1]; 1.0E-06 M) turn out when `C#Cc1cc(Nc2ncnc3cc(OC)c(OC)cc23)ccc1Cl` [Compound 45] was run?
A: The Residual activity was 62 % of control.

Q: And the Residual activity ([1]; 1.0E-07 M)?
A: Its Residual activity is 94 % of control.

Q: What about the “Residual activity, RPS6KA4” value ([2]; assay conc. 1.0E-06 M) of the same compound?
A: Its value is 83 % of control.

Q: What about the “Residual activity, RPS6KA4” value ([2]; assay conc. 1.0E-07 M) of the same compound?
A: Its value is 95 % of control.

Q: What about the Residual activity ([3]; CAMKK1, 1.0E-06 M) of the same compound?
A: Its Residual activity is 110 % of control.

Q: What about the Residual activity ([3]; CAMKK1, 1.0E-07 M) of the same compound?
A: Its Residual activity is 91 % of control.

Q: What about the Residual activity ([4]; CLK2, 1.0E-06 M) of the same compound?
A: The Residual activity was 105 % of control.

Q: What about the Residual activity ([4]; CLK2, 1.0E-07 M) of the same compound?
A: The Residual activity was 119 % of control.

Q: What about the “Residual activity, SIK3” value ([5]; assay conc. 1.0E-06 M) of the same compound?
A: Its value is 58 % of control.

Q: What about the “Residual activity, SIK3” value ([5]; assay conc. 1.0E-07 M) of the same compound?
A: Its value is 83 % of control.

Q: And the Residual activity ([6]; CAMK4, 1.0E-06 M)?
A: The Residual activity was 89 % of control.

Q: And the Residual activity ([6]; CAMK4, 1.0E-07 M)?
A: Its Residual activity is 84 % of control.

Q: And the “Residual activity, RPS6KA2” value ([7]; assay conc. 1.0E-06 M)?
A: The value was 86 % of control.

Q: And the “Residual activity, RPS6KA2” value ([7]; assay conc. 1.0E-07 M)?
A: Its value is 100 % of control.

Q: And the Residual activity ([8]; ARK5, 1.0E-06 M)?
A: The Residual activity was 114 % of control.

Q: And the Residual activity ([8]; ARK5, 1.0E-07 M)?
A: Its Residual activity is 104 % of control.

Q: And the Residual activity ([9]; MST2, 1.0E-06 M)?
A: Its Residual activity is 102 % of control.

Q: What about the Residual activity ([9]; MST2, 1.0E-07 M) of the same compound?
A: Its Residual activity is 103 % of control.

Q: What about the “Residual activity, TLK2” value ([10]; assay conc. 1.0E-06 M) of the same compound?
A: The value was 103 % of control.

Q: What about the “Residual activity, TLK2” value ([10]; assay conc. 1.0E-07 M) of the same compound?
A: The value was 111 % of control.
